According to BindingDB's records for doi:10.1021/jm00143a003 (1982):

Biological target: Spermine synthase (Rattus norvegicus)
Assay: Inhibitory activity against spermine synthase

Structure (SMILES): C[S+](C[C@H]1O[C@H](n2cnc3c(N)ncnc32)[C@H](O)[C@@H]1O)C(CCN)CCCCCN (stereo partly specified)
- IC50: 80 µM
